Read-outs that look alike come from different tables or passages of the source.
Columns and labels:
[1] = test system: AHR-regulated gene CYP1A1; assay: In vitro assay 3: AHR-regulated CYP1A1 expression in human cell line (U937, qPCR)
[2] = target: T1, AHR (Homo sapiens, UniProt P35869); assay: In vitro assay 2: agonism in human cell line (transactivation assay)
T1 sequence (P35869 11-848): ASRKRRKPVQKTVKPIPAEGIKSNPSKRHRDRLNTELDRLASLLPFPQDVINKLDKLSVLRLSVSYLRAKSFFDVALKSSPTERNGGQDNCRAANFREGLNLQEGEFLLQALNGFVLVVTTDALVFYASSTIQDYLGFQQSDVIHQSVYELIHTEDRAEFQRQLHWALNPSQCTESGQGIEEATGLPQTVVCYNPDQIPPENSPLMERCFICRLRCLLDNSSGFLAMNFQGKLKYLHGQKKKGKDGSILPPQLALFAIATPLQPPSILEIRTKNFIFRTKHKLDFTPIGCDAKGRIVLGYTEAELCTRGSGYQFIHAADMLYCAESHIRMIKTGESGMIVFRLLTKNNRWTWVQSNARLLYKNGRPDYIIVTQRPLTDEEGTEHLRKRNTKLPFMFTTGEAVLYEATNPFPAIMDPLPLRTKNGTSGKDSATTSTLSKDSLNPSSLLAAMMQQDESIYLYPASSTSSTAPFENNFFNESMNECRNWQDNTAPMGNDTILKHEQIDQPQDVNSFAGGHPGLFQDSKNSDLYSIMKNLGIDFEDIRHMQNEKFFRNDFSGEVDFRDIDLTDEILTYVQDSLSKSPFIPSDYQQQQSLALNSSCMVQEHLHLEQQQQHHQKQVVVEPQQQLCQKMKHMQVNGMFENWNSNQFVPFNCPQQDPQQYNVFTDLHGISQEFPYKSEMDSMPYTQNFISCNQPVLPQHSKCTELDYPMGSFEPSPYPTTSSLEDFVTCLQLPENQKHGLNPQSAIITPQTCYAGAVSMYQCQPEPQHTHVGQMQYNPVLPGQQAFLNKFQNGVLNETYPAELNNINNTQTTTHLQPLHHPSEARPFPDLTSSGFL

[3] = target: T1, AHR; assay: In vitro assay 1: antagonism in human cell line (transactivation assay, kynurenic acid prestimulated); details: Assay 1: AHR-luc Hum Antagonism IC50 [M], 150 μM kynurenic acid, 20 hours, firefly luciferase
[4] = Homo sapiens, U-937, 6 h, read-out: Assay 3: Hum CYP1A1 Antagonism IC50 [M], U937 cells, 200 μM KA, 6 hours, qPCR
[5] = Assay 2: AHR-luc Hum Agonism IC50 [M], no kynurenic acid, 20 hours, firefly luciferase
[6] = read-out: Assay 3: Hum CYP1A1 Antagonism IC50, U937 cells, 200 μM KA, 6 hours, qPCR

IC50 [1, 4] | IC50 [2, 5] | IC50 [3] | IC50 [1, 6] | IC50 ([2]; read-out: Assay 2: AHR-luc Hum Agonism IC50, no kynurenic acid, 20 hours, firefly luciferase) | Structure (SMILES)
2.46e-08 M | > 2e-05 M | 1.23e-08 M | – | – | C[C@@H](CO)NC(=O)c1cc(-c2ccc(C(F)(F)F)cc2)nn(-c2cccc(F)c2)c1=O [Example 237, 2-(3-Fluorophenyl)-N-[(2S)-1-hydroxypropan-2-yl]-3-oxo-6-[4-(trifluoromethyl)phenyl]-2,3-dihydropyridazine-4-carboxamide]
2.96e-07 M | > 2e-05 M | 1.66e-07 M | – | – | CC(C)[C@@H](CO)NC(=O)c1cc(-c2ccc(Cl)cc2)nn(-c2cccc(C#N)c2)c1=O [Example 361, 6-(4-chlorophenyl)-2-(3-cyanophenyl)-N-[(2S)-1-hydroxy-3-methylbutan-2-yl]-3-oxo-2,3-dihydropyridazine-4-carboxamide]
2.08e-08 M | > 2e-05 M | 4.94e-09 M | – | – | CC(C)(O)C(NC(=O)c1cc(-c2ccc(Cl)cc2)nn(-c2cccc(F)c2)c1=O)C(F)(F)F (stereo not drawn) [Example 277, 6-(4-Chlorophenyl)-2-(3-fluorophenyl)-3-oxo-N-(1,1,1-trifluoro-3-hydroxy-3-methylbutan-2-yl)-2,3-dihydropyridazine-4-carboxamide]
9.14e-08 M | > 2e-05 M | 4.87e-08 M | – | – | O=C(NCC(O)C(F)F)c1cc(-c2ccc(Cl)cc2)nn(-c2cccc(F)c2)c1=O (single isomer, unassigned; (-)) [Example 222, (−)-6-(4-Chlorophenyl)-N-(3,3-difluoro-2-hydroxypropyl)-2-(3-fluorophenyl)-3-oxo-2,3-dihydropyridazine-4-carboxamide]
3.71e-08 M | > 2e-05 M | 3.01e-08 M | – | – | COC[C@@H](CO)NC(=O)c1cc(-c2ccc(C(F)(F)F)cc2)nn(-c2cccc(F)c2)c1=O [Example 258, (−)-2-(3-Fluorophenyl)-N-[(2R)-1-hydroxy-3-methoxypropan-2-yl]-3-oxo-6-[4-(trifluoromethyl)phenyl]-2,3-dihydropyridazine-4-carboxamide]
4.6e-08 M | > 2e-05 M | 2.7e-08 M | – | – | N#C[C@@H](CO)NC(=O)c1cc(-c2ccc(Cl)cc2)nn(-c2cccc(F)c2)c1=O [Example 393, 6-(4-chlorophenyl)-N-[(1S)-1-cyano-2-hydroxyethyl]-2-(3-fluorophenyl)-3-oxo-2,3-dihydropyridazine-4-carboxamide]
9.5e-08 M | > 2e-05 M | 2.8e-08 M | – | – | CC(C)(O)C(NC(=O)c1cc(-c2ccc(C(F)(F)F)cc2)nn(-c2cccc(F)c2)c1=O)C(F)(F)F (single isomer, unassigned; (-)) [Example 394, (−)-2-(3-fluorophenyl)-3-oxo-N-(1,1,1-trifluoro-3-hydroxy-3-methylbutan-2-yl)-6-[4-(trifluoromethyl)phenyl]-2,3-dihydropyridazine-4-carboxamide]
2.83e-08 M | > 2e-05 M | 1.44e-08 M | – | – | CC(C)(O)CNC(=O)c1cc(-c2ccc(C(F)(F)F)cc2)nn(-c2cccc(F)c2)c1=O [Example 256, 2-(3-Fluorophenyl)-N-(2-hydroxy-2-methylpropyl)-3-oxo-6-[4-(trifluoromethyl)phenyl]-2,3-dihydropyridazine-4-carboxamide]
1.37e-07 M | > 2e-05 M | 5.11e-08 M | – | – | O=C(N[C@H]1CC[C@@H]1O)c1cc(-c2ccc(Cl)cc2)nn(-c2cccc(F)c2)c1=O (racemic) [Example 348, 6-(4-chlorophenyl)-2-(3-fluorophenyl)-N-(trans-2-hydroxycyclobutyl)-3-oxo-2,3-dihydropyridazine-4-carboxamide]

Continued, compound first:

Structure (SMILES) | IC50 [1, 4] | IC50 [2, 5] | IC50 [3] | IC50 [1, 6] | IC50 ([2]; read-out: Assay 2: AHR-luc Hum Agonism IC50, no kynurenic acid, 20 hours, firefly luciferase)
COc1ccc(-c2cc(C(=O)N[C@@H](C)[C@H](C)O)c(=O)n(-c3cccc(F)c3)n2)cc1 (relative stereo) [Example 116, rel-2-(3-Fluorophenyl)-N-[(2S,3S)-3-hydroxybutan-2-yl]-6-(4-methoxyphenyl)-3-oxo-2,3-dihydropyridazine-4-carboxamide] | 9.69e-08 M | > 2e-05 M | 2.9e-08 M | – | –
CC(C)(CO)NC(=O)c1cc(-c2ccc(Cl)cc2)nn(-c2cccc(F)c2)c1=O [Example 186, 6-(4-Chlorophenyl)-2-(3-fluorophenyl)-N-(1-hydroxy-2-methylpropan-2-yl)-3-oxo-2,3-dihydropyridazine-4-carboxamide] | 1.34e-07 M | > 2e-05 M | 1.88e-07 M | – | –
O=C(NC1(CO)CC1)c1cc(-c2ccc(Cl)cc2)nn(-c2cccc(F)c2)c1=O [Example 187, 6-(4-Chlorophenyl)-2-(3-fluorophenyl)-N-[1-(hydroxymethyl)cyclopropyl]-3-oxo-2,3-dihydropyridazine-4-carboxamide] | 1.1e-07 M | > 2e-05 M | 1.02e-07 M | – | –
O=C(NC(CO)C1CCOC1)c1cc(-c2ccc(OC(F)(F)F)cc2)nn(-c2cccc(F)c2)c1=O (single isomer, unassigned) [Example 176, 2-(3-Fluorophenyl)-N-[2-hydroxy-1-(tetrahydrofuran-3-yl)ethyl]-3-oxo-6-[4-(trifluoromethoxy)phenyl]-2,3-dihydropyridazine-4-carboxamide] | – | – | 1.71e-07 M | 1.02e-07 M | > 2e-05 M
O=C(NCC(O)C(F)(F)F)c1cc(-c2ccc(C(F)F)cc2)nn(-c2cccc(F)c2)c1=O (single isomer, unassigned) [Example 95, 6-[4-(Difluoromethyl)phenyl]-2-(3-fluorophenyl)-3-oxo-N-(3,3,3-trifluoro-2-hydroxypropyl)-2,3-dihydropyridazine-4-carboxamide] | – | > 2e-05 M | 6.77e-09 M | 7.63e-09 M | –
CC(C)C(O)CNC(=O)c1cc(-c2ccc(Cl)cc2)nn(-c2cc(F)cc(F)c2)c1=O (single isomer, unassigned) [Example 49, 6-(4-Chlorophenyl)-2-(3,5-difluorophenyl)-N-(2-hydroxy-3-methylbutyl)-3-oxo-2,3-dihydropyridazine-4-carboxamide] | – | > 2e-05 M | 3.42e-08 M | 4.92e-08 M | –
O=C(NC(CO)C(F)(F)F)c1cc(-c2ccc(OC(F)(F)F)cc2)nn(-c2cccc(F)c2)c1=O (single isomer, unassigned) [Example 170, 2-(3-Fluorophenyl)-3-oxo-N-(1,1,1-trifluoro-3-hydroxypropan-2-yl)-6-[4-(trifluoromethoxy)phenyl]-2,3-dihydropyridazine-4-carboxamide] | 1.42e-08 M | > 2e-05 M | 1.19e-08 M | – | –
O=C(NCC(O)C(F)(F)F)c1cc(-c2ccc(OC(F)(F)F)cc2)nn(-c2cccc(F)c2)c1=O (stereo not drawn) [Example 182, 2-(3-Fluorophenyl)-3-oxo-N-(3,3,3-trifluoro-2-hydroxypropyl)-6-[4-(trifluoromethoxy)phenyl]-2,3-dihydropyridazine-4-carboxamide] | 5.9e-08 M | > 2e-05 M | 3.41e-08 M | – | –
CC(C)C(O)CNC(=O)c1cc(-c2ccc(Cl)cc2)nn(-c2cccc(F)c2)c1=O (single isomer, unassigned) [Example 29, 6-(4-Chlorophenyl)-2-(3-fluorophenyl)-N-(2-hydroxy-3-methylbutyl]-3-oxo-2,3-dihydropyridazine-4-carboxamide] | 1.55e-07 M | > 2e-05 M | 9.15e-08 M | – | –
CC(C)[C@@H](CO)NC(=O)c1cc(-c2ccc(Cl)cc2)nn(-c2cc(F)cc(F)c2)c1=O [Example 43, 6-(4-Chlorophenyl)-2-(3,5-difluorophenyl)-N-[(2S)-1-hydroxy-3-methylbutan-2-yl]-3-oxo-2,3-dihydropyridazine-4-carboxamide] | 1.08e-08 M | > 2e-05 M | 4.89e-09 M | – | –
O=C(NC(CO)C1CCC1)c1cc(-c2ccc(Cl)cc2)nn(-c2cccc(F)c2)c1=O (racemic) [Example 209, 6-(4-Chlorophenyl)-N-[(1RS)-1-cyclobutyl-2-hydroxyethyl]-2-(3-fluorophenyl)-3-oxo-2,3-dihydropyridazine-4-carboxamide] | 3.21e-08 M | > 2e-05 M | 3.27e-08 M | – | –
O=C(N[C@H]1COC[C@@H]1O)c1cc(-c2ccc(Cl)cc2)nn(-c2cccc(F)c2)c1=O (single isomer, unassigned) [Example 135, 6-(4-Chlorophenyl)-2-(3-fluorophenyl)-N-(trans-4-hydroxytetrahydrofuran-3-yl)-3-oxo-2,3-dihydropyridazine-4-carboxamide] | 1.32e-07 M | > 2e-05 M | 1.41e-07 M | – | –
